Data reported in patent US12378202B2, “Tetrahydrobenzoazepinones and related analogs for inhibiting YAP/TAZ-TEAD” (THE KATHOLIEKE UNIVERSITEIT LEUVEN, priority 2021, dated 2025).

Assays:
Assay type in all cases: cell-based
[1] = test system: YAP/TAZ-TEAD transcription; experiment: Reporter gene assay (TEAD-responsive element luciferase reporter in Hek293T cells) for inhibition of YAP/TAZ-TEAD transcription; conditions: 24 hours incubation
Experimental: Hek293T cells are cultured in DMEM supplemented with 10% fetal bovine serum, Sodium pyruvate, Sodium bicarbonate, L-glutamine. The cells are harvested and transiently transfected with TEAD-responsive element luciferase reporter. Transfected cells are plated in 384-wells plate containing pre-diluted compounds. After 24 hours incubation at 37° C./5% CO2, assay plates were cooled down to RT and levelled to an equal volume per well, prior to the addition of 25 uL luciferase substrate SteadyLite (Perkin Elmer)/well. The plate was shaken for 10 min at 600 rpm, centrifuged for 1 min at 500 rpm and measured with an Envision reader (PerkinElmer). The amount of relative light units produced by the TEAD reporter is used to calculated percent of inhibition.
The percent of reporter inhibition was calculated in the presence of a positive control inhibitor (100% inhibition)versus a condition with the presence of the vehicle basal activity of the reporter (0% inhibition). The ability of a test compound to inhibit this activity was determined as:
Percentage inhibition=[1-((RLU determined in the presence of vehicle−RLU determined for sample with test compound present) divided by (RLU determined in the presence of vehicle−RLU determined for sample with positive control inhibitor))]*100
The activities of example compounds tested are depicted in Table 3. The activity ranges A, B and C refer to IC50 values in the reporter gene assay as follows: “A”: IC50<1 μM; “B”: 1 μM≤IC50≤20 μM and “C”: IC50>20 μM; NT=not tested.

[2] = test system: NCI-H226; experiment: Mesothelioma cell line proliferation assay (ATPlite), NCI-H226; conditions: Homo sapiens, 144 h; NCI-H226 mesothelioma cells, 6 days incubation, ATPlite cell viability
Experimental: (§1) Mesothelioma cell lines, NCI-H226 and NCI-H2052 (all sourced from the ATCC cell culture collection) are plated in 96-well plates (Corning® 96 Well White Polystyrene Microplate clear flat bottom, white polystyrene (TC-Treated)), at 1500 cells/well in full medium (RPMI 1640 ATCC modification with L-glutamine, HEPES, Phenol Red, Sodium Pyruvate, High glucose, Low sodium bicarbonate and 10% fetal bovine serum). Cells are incubated overnight at 37° C. in an incubator with 5% CO2. Then compounds, dissolved in DMSO, are added in dose-response. Cells are incubated with compound dilutions for another 6 days at 37° C. in an incubator with 5% CO2. Cell viability is quantitated using the ATPlite kit (Perkin-Elmer) and the luminescence is read-out using an Envision instrument (Perkin-Elmer). The amount of relative light units produced using the ATPlite kit is used to calculated percent of inhibition.
(§2) The activities of some example compounds are depicted in Table 4. The activity ranges A, B and C refer to EC50 values in the mesothelioma cell line proliferation assay as described as follows: “A”: EC50<1 μM; “B”: 1 μM≤EC50≤10 μM and “C”: EC50>10 μM; NT: not tested.

[3] = test system: NCI-H2052; experiment: Mesothelioma cell line proliferation assay (ATPlite), NCI-H2052; conditions: Homo sapiens, 144 h; NCI-H2052 mesothelioma cells, 6 days incubation, ATPlite cell viability
Experimental: as §1, §2

SMILES	IC50 ([1]; Homo sapiens, HEK-293T) [nM]	IC50 [1] [nM]	EC50 [2] [nM]	EC50 [3] [nM]
OCCNC1CCc2ccccc2N(c2ccc(C(F)(F)F)cc2)C1 (single isomer, unassigned) [Cpd. No. 003-En1, (R)- or (S)-2-((1-(4-(trifluoromethyl)phenyl)-2,3,4,5-tetrahydro-1H-benzo[b]azepin-3-yl)amino)ethan-1-ol]	1000 to 20000	–	–	–
OCCNC1CCc2ccccc2N(c2ccc(C(F)(F)F)cc2)C1 (single isomer, unassigned) [Cpd. No. 003-En2, (R)- or (S)-2-((1-(4-(trifluoromethyl)phenyl)-2,3,4,5-tetrahydro-1H-benzo[b]azepin-3-yl)amino)ethan-1-ol]	–	1000 to 20000	–	–
C=CC(=O)NC1CCc2ccccc2N(c2ccc(C(F)(F)F)cc2)C1 (single isomer, unassigned) [Cpd. No. 008-En1, (R)- or (S)-N-(1-(4-(trifluoromethyl)phenyl)-2,3,4,5-tetrahydro-1H-benzo[b]azepin-3-yl)acrylamide]	< 1000	–	–	–
C=CC(=O)NC1CCc2ccccc2N(c2ccc(C(F)(F)F)cc2)C1 (single isomer, unassigned) [Cpd. No. 008-En2, (R)- or (S)-N-(1-(4-(trifluoromethyl)phenyl)-2,3,4,5-tetrahydro-1H-benzo[b]azepin-3-yl)acrylamide]	–	< 1000	–	–
NC1CCc2ccccc2N(c2ccc(C(F)(F)F)cc2)C1 (stereo not drawn) [Cpd. No. 001, 1-(4-(trifluoromethyl)phenyl)-2,3,4,5-tetrahydro-1H-benzo[b]azepin-3-amine]	1000 to 20000	–	–	–
NC1CCc2ccccc2N(c2ccc(C(F)(F)F)cc2)C1=O (stereo not drawn) [Cpd. No. 002, 3-amino-1-(4-(trifluoromethyl)phenyl)-1,3,4,5-tetrahydro-2H-benzo[b]azepin-2-one]	> 20000	–	–	–
OCCNC1CCc2ccccc2N(c2ccc(C(F)(F)F)cc2)C1 (stereo not drawn) [Cpd. No. 003, 2-((1-(4-(trifluoromethyl)phenyl)-2,3,4,5-tetrahydro-1H-benzo[b]azepin-3-yl)amino)ethan-1-ol]	1000 to 20000	–	> 10000	> 10000
O=C1C(NCCO)CCc2ccccc2N1c1ccc(C(F)(F)F)cc1 (stereo not drawn) [Cpd. No. 004, 3-((2-hydroxyethyl)amino)-1-(4-(trifluoromethyl)phenyl)-1,3,4,5-tetrahydro-2H-benzo[b]azepin-2-one]	1000 to 20000	–	–	–
OCCCNC1CCc2ccccc2N(c2ccc(C(F)(F)F)cc2)C1 (stereo not drawn) [Cpd. No. 005, 3-((1-(4-(trifluoromethyl)phenyl)-2,3,4,5-tetrahydro-1H-benzo[b]azepin-3-yl)amino)propan-1-ol]	1000 to 20000	–	–	–
O=C(O)CCNC1CCc2ccccc2N(c2ccc(C(F)(F)F)cc2)C1 (stereo not drawn) [Cpd. No. 006, 3-((1-(4-(trifluoromethyl)phenyl)-2,3,4,5-tetrahydro-1H-benzo[b]azepin-3-yl)amino)propanoic acid]	> 20000	–	–	–
O=C1C(NCCCO)CCc2ccccc2N1c1ccc(C(F)(F)F)cc1 (stereo not drawn) [Cpd. No. 007, 3-((3-hydroxypropyl)amino)-1-(4-(trifluoromethyl)phenyl)-1,3,4,5-tetrahydro-2H-benzo[b]azepin-2-one]	> 20000	–	–	–
C=CC(=O)NC1CCc2ccccc2N(c2ccc(C(F)(F)F)cc2)C1 (stereo not drawn) [Cpd. No. 008, N-(1-(4-(trifluoromethyl)phenyl)-2,3,4,5-tetrahydro-1H-benzo[b]azepin-3-yl)acrylamide]	1000 to 20000	–	< 1000	< 1000
CCC(=O)NC1CCc2ccccc2N(c2ccc(C(F)(F)F)cc2)C1 (stereo not drawn) [Cpd. No. 009, N-(1-(4-(trifluoromethyl)phenyl)-2,3,4,5-tetrahydro-1H-benzo[b]azepin-3-yl)propionamide]	1000 to 20000	–	–	–
C=CC(=O)NC1CCc2ccccc2N(c2ccc(C(F)(F)F)cc2)C1=O (stereo not drawn) [Cpd. No. 010, N-(2-oxo-1-(4-(trifluoromethyl)phenyl)-2,3,4,5-tetrahydro-1H-benzo[b]azepin-3-yl)acrylamide]	> 20000	–	–	–
O=C1CCCN(c2ccc(C(F)(F)F)cc2)c2ccc(NCCO)cc21 [Cpd. No. 011, 7-((2-hydroxyethyl)amino)-1-(4-(trifluoromethyl)phenyl)-1,2,3,4-tetrahydro-5H-benzo[b]azepin-5-one]	1000 to 20000	–	–	–
O=C1CCCN(c2ccc(C(F)(F)F)cc2)c2ccc(NCCCO)cc21 [Cpd. No. 012, 7-((3-hydroxypropyl)amino)-1-(4-(trifluoromethyl)phenyl)-1,2,3,4-tetrahydro-5H-benzo[b]azepin-5-one]	> 20000	–	–	–
C=CC(=O)NC1Cc2ccccc2N(c2ccc(C(F)(F)F)cc2)C1=O (stereo not drawn) [Cpd. No. 013, N-(2-oxo-1-(4-(trifluoromethyl)phenyl)-1,2,3,4-tetrahydroquinolin-3-yl)acrylamide]	< 1000	–	< 1000	< 1000
C=CC(=O)NC1Cc2c(F)cccc2N(c2ccc(C(F)(F)F)cc2)C1=O (stereo not drawn) [Cpd. No. 014, N-(5-fluoro-2-oxo-1-(4-(trifluoromethyl)phenyl)-1,2,3,4-tetrahydroquinolin-3-yl)acrylamide]	< 1000	–	< 1000	< 1000
C=CC(=O)NC1Cc2cnccc2N(c2ccc(C(F)(F)F)cc2)C1=O (stereo not drawn) [Cpd. No. 015, N-(2-oxo-1-(4-(trifluoromethyl)phenyl)-1,2,3,4-tetrahydro-1,6-naphthyridin-3-yl)acrylamide]	1000 to 20000	–	–	–
